Structures are written as SMILES.

The experiment deals with Beet Armyworm (Spodoptera exigua). Description: Bioassay on Beet Armyworm (BAW), 128-well diet tray assay. To be noted: Table 3, Assays Results Part 1. The class given is in vivo. Here is the method:
Certain molecules disclosed in this document were tested against BAW, CEW and CL using procedures described in the following examples. In the reporting of the results, the “BAW & CEW & CL Rating Table” was used (See Table Section).
Bioassays on BAW (Spodoptera exigua)
Bioassays on BAW were conducted using a 128-well diet tray assay. One to five second instar BAW larvae were placed in each well (3 mL) of the diet tray that had been previously filled with 1 mL of artificial diet to which 50 μg/cm^2 of the test compound (dissolved in 50 μL of 90:10 acetone-water mixture) had been applied (to each of eight wells) and then allowed to dry. Trays were covered with a clear self-adhesive cover, and held at 25° C., 14:10 light-dark for five to seven days. Percent mortality was recorded for the larvae in each well; activity in the eight wells was then averaged. The results are indicated in the tables entitled “Table 3: Assay Results Part 1” and “Table 4: Assay Results Part 2” (See Table Section).

As for `O=C(NC1CCN(C2COC2)CC1)c1ccc(/C=C/C(c2cc(Cl)c(Cl)c(Cl)c2)C(F)(F)F)cc1Br` (stereo not drawn) [AC108], the “BAW Rating” value is “B (More than 0-Less than 50)”.
Take `CONC(=O)CNC(=O)c1ccc(/C=C/C(c2cc(Cl)c(Cl)c(Cl)c2)C(F)(F)F)cc1Br` (stereo not drawn) [AC110]: the “BAW Rating” value is “A (50-100)”.
As for `C=CCNC(=O)CNC(=O)c1ccc(/C=C/C(c2cc(Cl)c(Cl)c(Cl)c2)C(F)(F)F)cc1Br` (stereo not drawn) [AC111], the “BAW Rating” value is “A (50-100)”.
In the case of `O=C(NCCc1ccc(Cl)nc1)c1ccc(/C=C/C(c2cc(Cl)c(Cl)c(Cl)c2)C(F)(F)F)cc1Br` (stereo not drawn) [AC113], the “BAW Rating” value was “B (More than 0-Less than 50)”.
With `O=C(NC1CCNCC1)c1ccc(/C=C/C(c2cc(Cl)c(Cl)c(Cl)c2)C(F)(F)F)cc1Br` (stereo not drawn) [AC114, (E)-2-Bromo-N-(piperidin-4-yl)-4-(4,4,4-trifluoro-3-(3,4,5-trichlorophenyl)but-1-en-1-yl)benzamide] the entry was “A (50-100)”; with `Cc1cc(/C=C/C(c2cc(Cl)cc(Cl)c2)C(F)(F)F)ccc1C(=S)NCc1ccc(Cl)nc1` (stereo not drawn) [AC115, (E)-N-((6-Chloropyridin-3-yl)methyl)-4-(3-(3,5-dichlorophenyl)-4,4,4-trifluorobut-1-en-1-yl)-2-methylbenzothioamide], “A (50-100)”; with `Cc1cc(/C=C/C(c2cc(Cl)cc(Cl)c2)C(F)(F)F)ccc1C(=O)N(C)Cc1ccc(Cl)nc1` (stereo not drawn) [AC117], “A (50-100)”.
Regarding `Cc1cc(/C=C/C(c2cc(Cl)cc(Cl)c2)C(F)(F)F)ccc1C(=O)NCC1CCCO1` (stereo not drawn) [AC118], the “BAW Rating” value is “A (50-100)”.
For `O=C(CC(F)(F)F)NC1CCCc2cc(/C=C/C(c3cc(Cl)c(Cl)c(Cl)c3)C(F)(F)F)ccc21` (stereo not drawn) [BC5], the “BAW Rating” value is reported as “A (50-100)”.
Consider `O=C(NC1CCc2cc(/C=C/C(c3cc(Cl)c(Cl)c(Cl)c3)C(F)(F)F)ccc21)C1CC1` (stereo not drawn) [BC6], for which the “BAW Rating” value is “A (50-100)”.
As for `O=C(NC1CCCc2cc(/C=C/C(c3cc(Cl)c(Cl)c(Cl)c3)C(F)(F)F)ccc21)C1CC1` (stereo not drawn) [BC7], the “BAW Rating” value is “A (50-100)”.
The value for `O=C(CC(F)(F)F)NC1CCc2cc(/C=C/C(c3cc(Cl)c(F)c(Cl)c3)C(F)(F)F)ccc21` (stereo not drawn) [BC8] was “A (50-100)”.
Take `O=C(Cc1ccc(Cl)nc1)NC1CCc2cc(/C=C/C(c3cc(Cl)c(F)c(Cl)c3)C(F)(F)F)ccc21` (stereo not drawn) [BC9]: the “BAW Rating” value was “A (50-100)”.
`Fc1c(Cl)cc(C(/C=C/c2ccc3c(c2)CCC3NCCC(F)(F)F)C(F)(F)F)cc1Cl` (stereo not drawn) [BC10, (E)-5-(3-(3,5-Dichloro-4-fluorophenyl)-4,4,4-trifluorobut-1-en-1-yl)-N-(3,3,3-trifluoropropyl)-2,3-dihydro-1H-inden-1-amine]: the “BAW Rating” value is listed as “A (50-100)”.
As to `O=C(CC(F)(F)F)NCC(=O)n1ccc2cc(/C=C/C(c3cc(Cl)c(F)c(Cl)c3)C(F)(F)F)ccc21` (stereo not drawn) [BC13, (E)-N-(2-(5-(3-(3,5-Dichloro-4-fluorophenyl)-4,4,4-trifluorobut-1-en-1-yl)-1H-indol-1-yl)-2-oxoethyl)-3,3,3-trifluoropropanamide], the “BAW Rating” value is “A (50-100)”.
`O=C(Cn1ncc2cc(/C=C/C(c3cc(Cl)c(F)c(Cl)c3)C(F)(F)F)ccc2c1=O)NCC(F)(F)F` (stereo not drawn) [BC14, (E)-2-(6-(3-(3,5-Dichloro-4-fluorophenyl)-4,4,4-trifluorobut-1-en-1-yl)-1-oxophthalazin-2(1H)-yl)-N-(2,2,2-trifluoroethyl)acetamide]: the “BAW Rating” value is given as “A (50-100)”.
For the compound `O=C(NCc1ccc(/C=C/C(c2cc(Cl)cc(Cl)c2)C(F)(F)F)cc1)C1CC1` (stereo not drawn) [CC2], the “BAW Rating” value is “A (50-100)”.
Turning to `O=C(CC(F)(F)F)NCc1ccc(/C=C/C(c2cc(Cl)cc(Cl)c2)C(F)(F)F)cc1` (stereo not drawn) [CC3], the “BAW Rating” value is on record as “A (50-100)”.
`CCC(=O)NCc1ccc(/C=C/C(c2cc(Cl)cc(Cl)c2)C(F)(F)F)cc1` (stereo not drawn) [CC4]: the “BAW Rating” value is listed as “A (50-100)”.
Regarding `O=C(NCc1ccc(/C=C/C(c2cc(Cl)c(Cl)c(Cl)c2)C(F)(F)F)cc1)C1CC1` (stereo not drawn) [CC5], the “BAW Rating” value is recorded as “A (50-100)”.
As for `O=C(CC(F)(F)F)NCc1ccc(/C=C/C(c2cc(Cl)c(Cl)c(Cl)c2)C(F)(F)F)cc1` (stereo not drawn) [CC6], the “BAW Rating” value is recorded as “A (50-100)”.
In the case of `CC(=O)NCc1ccc(/C=C/C(c2cc(Cl)cc(Cl)c2)C(F)(F)F)cc1Cl` (stereo not drawn) [CC7, (E)-N-(2-Chloro-4-(3-(3,5-dichlorophenyl)-4,4,4-trifluorobut-1-en-1-yl)benzyl)acetamide], the “BAW Rating” value is “A (50-100)”.
As for `O=C(NCc1ccc(/C=C/C(c2cc(Cl)cc(Cl)c2)C(F)(F)F)cc1Cl)C1CC1` (stereo not drawn) [CC8], the “BAW Rating” value is reported as “A (50-100)”.
The value for `O=C(CC(F)(F)F)NCc1ccc(/C=C/C(c2cc(Cl)cc(Cl)c2)C(F)(F)F)cc1Cl` (stereo not drawn) [CC9] was “A (50-100)”; that for `O=C(NCc1ccc(/C=C/C(c2cc(Cl)c(Cl)c(Cl)c2)C(F)(F)F)cc1Cl)C1CC1` (stereo not drawn) [CC11] was “A (50-100)”.
Turning to `O=C(Cc1ccc(Cl)nc1)NCc1ccc(/C=C/C(c2cc(Cl)c(Cl)c(Cl)c2)C(F)(F)F)cc1Cl` (stereo not drawn) [CC14], the “BAW Rating” value is on record as “A (50-100)”.
As for `O=C(NCc1ccc(/C=C/C(c2cc(Cl)c(F)c(Cl)c2)C(F)(F)F)cc1Cl)C1CC1` (stereo not drawn) [CC15], the “BAW Rating” value is “A (50-100)”.
With `O=C(NCc1ccc(/C=C/C(c2ccc(Cl)c(Cl)c2)C(F)(F)F)cc1Cl)C1CC1` (stereo not drawn) [CC17], the “BAW Rating” value was “A (50-100)”.
As for `O=C(CC(F)(F)F)NCc1ccc(/C=C/C(c2ccc(Cl)c(Cl)c2)C(F)(F)F)cc1Cl` (stereo not drawn) [CC18], the “BAW Rating” value is reported as “A (50-100)”.
With `CSCCC(=O)NCc1ccc(/C=C/C(c2cc(Cl)c(Cl)c(Cl)c2)C(F)(F)F)cc1Cl` (stereo not drawn) [CC19] the entry was “A (50-100)”; with `FC(F)(F)C(/C=C/c1ccc(CNC(=S)C2CC2)c(Cl)c1)c1cc(Cl)c(Cl)c(Cl)c1` (stereo not drawn) [CC20], “A (50-100)”; with `O=C(NCc1ccc(/C=C/C(c2cc(Cl)cc(Cl)c2)C(F)(F)F)cc1C(F)(F)F)C1CC1` (stereo not drawn) [CC21], “A (50-100)”.
With `O=C(NCc1ccc(/C=C/C(c2cc(Cl)c(Cl)c(Cl)c2)C(F)(F)F)cc1C(F)(F)F)C1CC1` (stereo not drawn) [CC22] the entry was “A (50-100)”.
`O=C(CC(F)(F)F)NCc1ccc(/C=C/C(c2cc(Cl)c(Cl)c(Cl)c2)C(F)(F)F)cc1C(F)(F)F` (stereo not drawn) [CC24]: the “BAW Rating” value is given as “A (50-100)”.
Regarding `O=C(CC(F)(F)F)NCc1ccc(/C=C/C(c2cc(Cl)c(Cl)c(Cl)c2)C(F)(F)F)cc1Br` (stereo not drawn) [CC25], the “BAW Rating” value is recorded as “A (50-100)”.
In the case of `O=C(NCc1ccc(/C=C/C(c2cc(Cl)c(Cl)c(Cl)c2)C(F)(F)F)cc1Br)C1CC1` (stereo not drawn) [CC26], the “BAW Rating” value is on record as “A (50-100)”.
With `O=C(CC(F)(F)F)NCc1ccc(/C=C/C(c2cc(Cl)c(Cl)c(Cl)c2)C(F)(F)F)cc1F` (stereo not drawn) [CC27] the entry was “A (50-100)”; with `O=C(NCc1ccc(/C=C/C(c2cc(Cl)c(Cl)c(Cl)c2)C(F)(F)F)cc1F)C1CC1` (stereo not drawn) [CC28], “A (50-100)”.
With `O=C(C1CC1)N(Cc1ccccn1)Cc1ccc(/C=C/C(c2cc(Cl)c(Cl)c(Cl)c2)C(F)(F)F)cc1C(F)(F)F` (stereo not drawn) [CC29, (E)-N-(Pyridin-2-ylmethyl)-N-(4-(4,4,4-trifluoro-3-(3,4,5-trichlorophenyl)but-1-enyl)-2-(trifluoromethyl)benzyl)cyclopropanecarboxamide] the entry was “A (50-100)”; with `CS(=O)(=O)CCC(=O)NCc1ccc(/C=C/C(c2cc(Cl)c(Cl)c(Cl)c2)C(F)(F)F)cc1Cl` (stereo not drawn) [CC30, (E)-N-(2-Chloro-4-(4,4,4-trifluoro-3-(3,4,5-trichlorophenyl)but-1-en-1-yl)benzyl)-3-(methylsulfonyl)propanamide], “A (50-100)”.
Regarding `CCNC(=O)NCc1ccc(/C=C/C(c2cc(Cl)cc(Cl)c2)C(F)(F)F)cc1Cl` (stereo not drawn) [CC31, (E)-1-(2-Chloro-4-(3-(3,5-dichlorophenyl)-4,4,4-trifluorobut-1-en-1-yl)benzyl)-3-ethylurea], the “BAW Rating” value was “B (More than 0-Less than 50)”.
With `CCNC(=O)NCc1ccc(/C=C/C(c2cc(Cl)c(Cl)c(Cl)c2)C(F)(F)F)cc1C(F)(F)F` (stereo not drawn) [CC32] the entry was “A (50-100)”.
As for `CCNC(=O)NCc1ccc(/C=C/C(c2cc(Cl)c(Cl)c(Cl)c2)C(F)(F)F)cc1Br` (stereo not drawn) [CC33], the “BAW Rating” value is “A (50-100)”.
With `O=C(NCc1ccc(/C=C/C(c2cc(Cl)c(Cl)c(Cl)c2)C(F)(F)F)cc1Cl)N1CCOCC1` (stereo not drawn) [CC34] the entry was “A (50-100)”.
In the case of `CN(C)C(=O)NCc1ccc(/C=C/C(c2cc(Cl)c(Cl)c(Cl)c2)C(F)(F)F)cc1Cl` (stereo not drawn) [CC36, (E)-3-(2-Chloro-4-(4,4,4-trifluoro-3-(3,4,5-trichlorophenyl)but-1-en-1-yl)benzyl)-1,1-dimethylurea], the “BAW Rating” value is on record as “A (50-100)”.
With `CCNC(=S)NCc1ccc(/C=C/C(c2cc(Cl)c(Cl)c(Cl)c2)C(F)(F)F)cc1Cl` (stereo not drawn) [CC37, (E)-1-(2-Chloro-4-(4,4,4-trifluoro-3-(3,4,5-trichlorophenyl)but-1-en-1-yl)benzyl)-3-ethylthiourea] the entry was “A (50-100)”; with `C=CCNC(=S)NCc1ccc(/C=C/C(c2cc(Cl)c(Cl)c(Cl)c2)C(F)(F)F)cc1Cl` (stereo not drawn) [CC38], “A (50-100)”; with `FC(F)(F)C(/C=C/c1ccc(CNc2ccccn2)c(Cl)c1)c1cc(Cl)c(Cl)c(Cl)c1` (stereo not drawn) [CC43, (E)-N-(2-Chloro-4-(4,4,4-trifluoro-3-(3,4,5-trichlorophenyl)but-1-en-1-yl)benzyl)pyridin-2-amine], “A (50-100)”.

The record behind these values is patent publication US9226500B2, “Pesticidal compositions and processes related thereto” (Dow AgroSciences LLC, priority 2012, dated 2016).
